# Tests used:
# [1] = system: human placenta derived cells (HPC); assay: Reprogramming efficiency of OSKM-transduced somatic cells to iPSCs (HPC); assay type: cell-based
# Text: (§1) In order to examine whether 4,6-di-4-morpholinyl-N-(4-nitrophenyl)-1,3,5-triazin-2-amine (MHY1485, CAS Number 326914-06-1), which is an mTOR (mammalian target of rapamycin) activator, has an influence on reprogramming efficiency, reprogramming factors (OCT4, SOX2, c-Myc, KLF4; OSKM) were transduced into primary umbilical vein endothelial cells (HUVEC, ATCC #PCS-100-010), primary human dermal fibroblasts (HDF, ATCC # PCS-201-012), and human placenta derived cells (HPC) via the Sendai virus (SeV) system as shown in FIG. 1a.
# (§2) Twenty-four hours after transduction, the cells were cultured for one week in a placenta-derived cell conditioned medium (PCCM) or growth medium (GM). MHY1485 was added at a dose of 2 μg/mL once per 24 hours for three weeks. After one week of the culturing in a placenta-derived cell conditioned medium (PCCM) or growth medium (GM), the cells were induced to undergo reprogramming for two weeks in Matrigel-coated culture dishes containing mTeSR medium together with MHY1485 under a general pluripotent stem cell culturing condition.
# [2] = system: primary umbilical vein endothelial cells (HUVEC); assay: Reprogramming efficiency of OSKM-transduced somatic cells to iPSCs (HUVEC); assay type: cell-based, human
# Text: as §1, §2
# [3] = system: HUVEC, HDF, and HPC cells; assay: Reprogramming efficiency, HUVEC, HDF and HPC taken together (total of 9 dishes); assay type: cell-based, human
# Text: as §1, §2
# HUVEC, HDF, and HPC cells were induced to undergo reprogramming by treatment with MHY1485 or in PCCM in three dishes for each cell line.
# [4] = system: CXCR2, mTOR, cMYC, LC3a/b, p62 in HUVEC, HDF, and HPC cells; assay: Western blot of protein expression in somatic cells with or without MHY1485; assay type: cell-based, human
# Text: as §1, §2
# Western blotting identified the expression of CXCR2, mTOR, and cMYC. Autophagic flux activity was identified […].
# [5] = system: LC3a/b in HUVEC, HDF, and HPC cells; assay: Immunofluorescence assay of LC3a/b (autophagy) in somatic cells; assay type: cell-based, human; conditions: rapamycin as control
# [6] = system: primary human dermal fibroblasts (HDF); assay: Reprogramming efficiency of OSKM-transduced somatic cells to iPSCs (HDF); assay type: cell-based
# Text: as §1, §2
# [7] = GM + MHY1485 (2 μg/mL once per 24 hours for three weeks)
# [8] = treatment with MHY1485 vs no treatment
compound,measurement,setting,value
"O=[N+]([O-])c1ccc(Nc2nc(N3CCOCC3)nc(N3CCOCC3)n2)cc1 [MHY1485, 4,6-di-4-morpholinyl-N-(4-nitrophenyl)-1,3,5-triazin-2-amine]",Reprogramming efficiency (%),[1]; [7],0.35%
same,Reprogramming efficiency (%),[1]; hPCCM + MHY1485 (2 μg/mL),0.92%
same,Reprogramming efficiency (%),[2]; [7],0.13%
same,Reprogramming efficiency (%),[2]; hPCCM + MHY1485 (2 μg/mL),0.39%
same,Reprogramming efficiency (%),"[3]; GM + MHY1485, HUVEC, HDF, HPC, three dishes each, total of 9 dishes",0.17%
same,"effect of increasing reprogramming efficiency, compared to the employment of PCCM medium","[3]; MHY1485 treatment vs PCCM medium, FIG. 4 and Table 2",significantly higher
same,reprogramming efficiency compared to untreated cells,"[3]; all the cells (HUVEC, HDF, HPC), FIGS. 2a to 2c",increased
same,expression level of p62 (indicates inactivation of autophagic flux),[4]; treatment with MHY1485,increased
same,expression of CXCR2,[4]; [8],increased
same,expression of LC3a/b,[4]; [8],decreased
same,expression of cMYC,[4]; [8],increased
same,expression of mTOR,[4]; [8],increased
same,expression of LC3a/b (inhibition of autophagy),[5],decreased
same,Reprogramming efficiency (%),[6]; [7],0.04%
same,Reprogramming efficiency (%),[6]; hPCCM + MHY1485 (2 μg/mL),0.07%

# Reference: US20230013363A1, “COMPOSITION FOR ENHANCING REPROGRAMMING EFFICIENCY FROM SOMATIC CELL TO INDUCED PLURIPOTENT STEM CELL, COMPRISING MTOR ACTIVATOR, AND METHOD FOR ENHANCING REPROGRAMMING EFFICIENCY BY USING SAME” (KOREA UNIVERSITY RESEARCH AND BUSINESS FOUNDATION, priority 2019, published 2023)
